Reference: patent publication US20260116910A1, “POLYCYCLIC COMPOUNDS AND METHODS THEREOF” (HEPAITECH (BEIJING) BIOPHARMA TECHNOLOGY CO., LTD., priority 2021, published 2026)
Several values for one entry are separate records, joined by “and”; a condition that tells them apart may be missing. Equal entries are not always repeated.

What was measured:
human FXR (NR1H4) = target: T1, human FXR (NR1H4) (Homo sapiens, UniProt Q96RI1); test: Human FXR (NR1H4) agonist assessment, FXRE-NanoLuc reporter in HEK293T cells; format: cell-based; settings: FXR activation, HEK293T FXRE-NanoLuc reporter, 24 hr; for EC50: read-out: EC50
T1 sequence (Q96RI1 1-476 isoform Q96RI1-1): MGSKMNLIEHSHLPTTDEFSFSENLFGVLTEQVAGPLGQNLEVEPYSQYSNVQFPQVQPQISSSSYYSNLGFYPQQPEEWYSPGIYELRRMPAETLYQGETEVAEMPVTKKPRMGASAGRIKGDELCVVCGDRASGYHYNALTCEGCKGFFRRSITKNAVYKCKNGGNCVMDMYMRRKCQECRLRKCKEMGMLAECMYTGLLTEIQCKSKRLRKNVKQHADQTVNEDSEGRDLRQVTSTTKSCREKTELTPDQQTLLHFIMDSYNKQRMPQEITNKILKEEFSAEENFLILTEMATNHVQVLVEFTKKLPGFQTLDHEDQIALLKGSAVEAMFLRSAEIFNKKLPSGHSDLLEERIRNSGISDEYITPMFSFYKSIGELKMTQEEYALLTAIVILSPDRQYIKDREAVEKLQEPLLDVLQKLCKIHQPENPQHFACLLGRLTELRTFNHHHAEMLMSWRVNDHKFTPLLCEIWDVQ
Protocol: As those skilled in the art appreciate, various technologies are available for assessment of FXR activation in accordance with the present disclosure. […] Human FXR (NR1H4) agonist assessment (see, e.g., Yu et al. eLife 2019; 8: e48431): HEK293T cells stably expressing human FXR and containing FXR response element (FXRE)-NanoLuc reporter were cultured in DMEM medium supplemented with 10% FBS and 1% PS, at 37° C. in a humidified atmosphere with 5% CO2. Cells were detached by centrifuging (1000 rpm, 3 min). The pellet was re-suspended in medium, and cell density was adjusted to about 1×10^6 cells/mL. 100 μL suspension was seeded to each well of a white-walled, clear-bottom 96-well microplates (cell plate). Cells in microplates were cultured overnight.
In the following day, cells were grown to higher than 95% density in each well. Culture medium was replaced, and compounds were added to the wells. 0.01% DMSO (v/v) served as negative control. Plates were incubated at 37° C. in 5% CO2 for 24 hr.
In the following day, a 10 μL aliquot of cell culture medium was removed from each well and combined with 40 μL culture medium plus […] assay buffer (containing 20 mM of the luciferase substrate coelenterazine). After 5 min incubation, luminescence was measured using an EnVision plate reader (PerkinElmer).
In some embodiments, gradient diluted solutions of several concentrations were used to treat cells and corresponding responses were used to fit sigmoid function and to derive EC50 in Origin.

MRGPRX4 = MRGPRX4 (Homo sapiens, UniProt Q96LA9); test: MRGPRX4 activation, Fluo-8 Ca2+ FLIPR assay in HEK293T cells stably expressing MRGPRX4; format: cell-based; settings: for EC50: MRGPRX4 activation, Ca2+ fluorescence, no activation in tested range reported as III, read-out: Activity (EC50 μM)
Protocol: In some embodiments, cells were cultured in poly-D-Lys coated blacked walled, clear-bottom 96-well microplates. HEK293T cells stably expressing MRGPRX4 were cultured in DMEM medium supplemented with 10% FBS and 1% PS, at 37° C. in a humidified atmosphere with 5% CO2. Cells were detached by centrifuging (1000 rpm, 3 min). The pellet was re-suspended in medium, and cell density was adjusted to about 1×10^6 cells/mL. 100 μL suspension was seeded to each well of a microplates (cell plate). Cells in the microplates were cultured overnight. In the following day, cells were grown to higher than 95% density in each well.
Ca^2+ fluorescent dye loading: Fluo-8 AM (Screen Quest Fluo-8 AM Calcium Assay Kit, AAT Bioquest, cat. #: 21083) was diluted in HHBS buffer and adjusted to 2 μM (dye buffer). Medium in each well was changed into 50 μL dye buffer carefully. After incubation for 40-60 min under room temperature, the dye buffer was changed into 50 μL HHBS buffer.
The concentration of solution should be determined according to the protocol settings and experimental needs (e.g., Log[M]=−4, −5, −6, −7, −8, and −9). Prepare 2× serial dilution series of compounds (at least 75 μL per well).
A fluorescent signal baseline was measured using FLIPR®Tetra for 30 s. Then 50 μL of the chemical solution would be added to the cell plate. The fluorescent signal would be measured for another 150 s.
Activity of each compound was calculated by the fluorescence change (dF/F0). Curves were fitted to obtain EC50 values. In some embodiments, at least 3 repeats were performed to obtain the average values. For assessment of a compound, gradient diluted solutions of different concentrations were used to treat cells and corresponding responses were used to fit sigmoid function and to derive EC50 in Origin. In some embodiments, assessed concentrations were or included about 10^−4, 10^−4.5, 10^−5, 10^−5.5, 10^−6, 10^−6.5, 10^−7, 10^−8, and/or 10^−9 M; for example, in many instances, assessed concentrations included about 10^−5, 10^−6, 10^−7 and 10^−8 M. In some embodiments, assessed concentrations were about 10^−4, 10^−4.5, 10^−5, 10^−5.5, 10^−6, 10^−7, 10^−8, and 10^−9 M. In some embodiments, assessed concentrations were about 10^−4, 10^−5, 10^−6, 10^−7, 10^−8, and 10^−9 M. In some embodiments, assessed concentrations were about 10^−4, 10^−4.5, 10^−5, 10^−5.5, 10^−6, and 10^−7 M. In some embodiments, assessed concentrations were about 2000000, 1000000, 500000, 250000, 125000, 62500, 31250, 15625, 7813, 3906 nM. […] In some embodiments, assessed concentrations were about 30000, 10000, 3333, 1111, 370, 123, 41, 14, 4.6, 1.5 nM.

Sequence of MRGPRX4 (Q96LA9 whole entry): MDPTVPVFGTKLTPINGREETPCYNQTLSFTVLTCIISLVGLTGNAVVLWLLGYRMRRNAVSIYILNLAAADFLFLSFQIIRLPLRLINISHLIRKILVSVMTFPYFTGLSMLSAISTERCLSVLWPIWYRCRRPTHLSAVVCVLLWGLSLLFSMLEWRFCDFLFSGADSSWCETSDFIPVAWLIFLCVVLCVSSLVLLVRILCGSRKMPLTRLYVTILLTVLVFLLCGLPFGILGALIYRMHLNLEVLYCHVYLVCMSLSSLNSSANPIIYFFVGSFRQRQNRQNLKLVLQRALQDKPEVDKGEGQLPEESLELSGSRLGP

SMILES | Efficacy (maximum measured induction of NanoLuc, normalized to CDCA set as 100%) (human FXR (NR1H4)) | EC50 (human FXR (NR1H4)) [µM] | MRGPRX4 activation, fluorescence change (dF/F0), Average (MRGPRX4; Conc. (Log[M]) −5) | EC50 (MRGPRX4) [µM] | MRGPRX4 activation, fluorescence change (dF/F0), Average (MRGPRX4; Conc. (Log[M]) −4) | MRGPRX4 activation, fluorescence change (dF/F0), Average (MRGPRX4; Conc. (Log[M]) −4.5) | MRGPRX4 activation, fluorescence change (dF/F0), Average (MRGPRX4; Conc. (Log[M]) −5.5) | MRGPRX4 activation, fluorescence change (dF/F0), Average (MRGPRX4; Conc. (Log[M]) −6) | MRGPRX4 activation, fluorescence change (dF/F0), Average (MRGPRX4; Conc. (Log[M]) −7) | MRGPRX4 activation, fluorescence change (dF/F0), Average (MRGPRX4; Conc. (Log[M]) −8) | MRGPRX4 activation, fluorescence change (dF/F0), Average (MRGPRX4; Conc. (Log[M]) −9)
CO/N=C1\C[C@@H]2C[C@H](OC(C)=O)CC[C@]2(C)[C@H]2CC[C@]3(C)[C@@H]([C@H](C)CCC(=O)OC)CC[C@H]3[C@H]12 [1-2] | D (efficacy <=100%) | > 10 | 0.027 and 0.022 | 50 to 100 |  |  |  |  |  |  | 
COC(=O)CC[C@@H](C)[C@H]1CC[C@H]2[C@@H]3/C(=N\OC(C)(C)C(=O)O)C[C@@H]4C[C@H](OC(C)=O)CC[C@]4(C)[C@H]3CC[C@]12C [1-3] | C (100%<efficacy <=300%) | > 10 | 0.047 | < 50 | 0.109 | 0.114 | −0.026 | −0.008 | 0.018 | −0.003 | 0.008
CC[C@H]1[C@@H](O)[C@@H]2[C@H](CC[C@]3(C)[C@@H]([C@H](C)CCC(=O)OC)CC[C@@H]23)[C@@]2(C)CCCC[C@@H]12 [1-4] | C (100%<efficacy <=300%) | 1 to 10 | −0.014 | > 100 | 0.098 | 0.004 | −0.004 | −0.011 | −0.006 | −0.009 | −0.020
CC[C@H]1[C@@H](OC(=O)c2cccc(I)c2)[C@@H]2[C@H](CC[C@]3(C)[C@@H]([C@H](C)CCC(=O)OC)CC[C@@H]23)[C@@]2(C)CCCC[C@@H]12 [1-5] | D (efficacy <=100%) | > 10 | −0.045 | 50 to 100 | 0.035 | −0.027 | −0.034 | −0.041 | −0.027 | −0.049 | −0.084
CC[C@H]1[C@@H](OC(=O)c2cccc(I)c2)[C@@H]2[C@H](CC[C@@]3(C)[C@H]2CC[C@]3(Cl)[C@H](C)CCC(=O)OC)[C@@]2(C)CCCC[C@@H]12 [1-6] | D (efficacy <=100%) | > 10 | −0.001 | > 100 | 0.018 | −0.031 | −0.012 | −0.006 | −0.001 | 0.001 | −0.014
C[C@H](CC/C=C/C(=O)O)[C@H]1CC[C@H]2[C@@H]3CC[C@@H]4C[C@H](O)CC[C@]4(C)[C@H]3CC[C@]12C [1-7] | C (100%<efficacy <=300%) | 1 to 10 | −0.048 | < 50 | 0.083 | 0.011 | −0.037 | −0.044 | −0.045 | −0.040 | −0.034
CC(C[C@@H](C)[C@H]1CC[C@H]2[C@@H]3CC[C@@H]4CCCC[C@]4(C)[C@H]3CC[C@]12C)C(=O)O (stereo partly shown) [2-1] | C (100%<efficacy <=300%) | > 10 | −0.045 | > 100 | 0.071 | −0.014 | −0.072 | −0.095 | −0.110 | −0.072 | −0.091
CC(O)CC[C@@H](C)[C@H]1CC[C@H]2[C@@H]3CC[C@@H]4CCCC[C@]4(C)[C@H]3CC[C@]12C (stereo partly shown) [2-2] | C (100%<efficacy <=300%) | > 10 |  | > 100 |  |  |  |  |  |  | 
